The test concerns the target T1, ADAMTS-8 (Homo sapiens, UniProt Q9UP79).
T1 construct: made in house; host or cells: HEK293T
T1 sequence (Q9UP79 214-889): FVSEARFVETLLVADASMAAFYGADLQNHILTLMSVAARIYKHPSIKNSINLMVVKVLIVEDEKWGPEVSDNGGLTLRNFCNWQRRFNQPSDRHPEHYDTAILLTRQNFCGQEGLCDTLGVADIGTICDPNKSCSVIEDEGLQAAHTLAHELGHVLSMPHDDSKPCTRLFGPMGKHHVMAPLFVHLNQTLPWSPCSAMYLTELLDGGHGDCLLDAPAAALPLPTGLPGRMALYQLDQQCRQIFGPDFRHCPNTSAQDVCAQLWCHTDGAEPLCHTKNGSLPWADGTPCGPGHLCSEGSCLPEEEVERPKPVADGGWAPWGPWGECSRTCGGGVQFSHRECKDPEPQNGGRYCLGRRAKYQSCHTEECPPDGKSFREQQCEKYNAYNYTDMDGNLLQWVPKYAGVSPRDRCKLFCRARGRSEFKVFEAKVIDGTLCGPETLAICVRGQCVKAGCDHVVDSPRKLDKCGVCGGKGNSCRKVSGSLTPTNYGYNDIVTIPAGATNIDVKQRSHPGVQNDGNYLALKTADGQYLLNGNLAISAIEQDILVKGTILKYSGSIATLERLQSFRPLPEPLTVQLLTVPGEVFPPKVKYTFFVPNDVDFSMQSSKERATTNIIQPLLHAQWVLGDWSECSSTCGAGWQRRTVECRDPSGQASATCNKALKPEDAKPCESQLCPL
Nature of the test: Cleavage of ATS7FP7 by ADAMTS-8. The test is classed as biochemical. The following applies: ADAMTS-8 10 nM, ATS7FP7 40 μM. How it is done: All enzyme assays were conducted in TNC-B buffer (50 mM Tris- HCl, pH 7.5, 150 mM NaCl, 10 mM CaCl2, and 0.02% NaN3) at 37 °C in 384 well plates (Cat. No: 784900, Greiner Bio-One, Austria). To avoid the formation of inhibitor or peptide aggregates, the detergent Brij-35 (0.05%) was added to TNC-B[13]. For inhibition studies, stock solutions of chemical compounds were prepared in dimethyl sulfoxide (DMSO) (10 mM). These were further diluted at different concentrations in TNC-B and incubated with ADAMTS-1, ADAMTS-4, ADAMTS-5, ADAMTS-7 or ADAMTS-8 (10 nM) for 1 h at 37 °C. Blank samples were prepared using buffer only and the rate of cleavage for blank reactions was subtracted from the rates measured in the presence of enzyme. Upon addition of the indicated ADAMTS-7 FRET substrates (40 µM), the fluorescence was measured immediately using a FLUOstar Omega microplate reader (BMG Labtech, Germany) with an excitation filter wavelength of 485 nm and an emission filter wavelength of 520 nm.
Supplementary Figure 6: Cleavage of ATS7FP7 by members of the ADAMTS family. A) ATS7FP7 (40 μM) was incubated either with ADAMTS-1, -4, -5, -7, or -8 (10 nM). Fluorescence was detected (λex = 485 nm, λem = 520 nm) for 8 h at 37°C and reported as relative fluorescence units (RFU). The data are presented as average ± SEM (n=3) and were fitted with a linear regression. […]

For the substance “Glu-Ala-Ala-Ala-Arg↓Ala-Glu↓Ala-Ala-Ala-Lys [ATS7FP7]”, the “cleavage by ADAMTS-8” value is reported as “neither ADAMTS-1 nor ADAMTS-8 were able to cleave ATS7FP7”.

The values above are taken from paper PMC8494430, “Development of a fluorogenic ADAMTS-7 substrate” (Journal of Enzyme Inhibition and Medicinal Chemistry, 2021).
